Test results published in PMC8137473, “Preclinical trial of a MAP4K4 inhibitor to reduce infarct size in the pig: does cardioprotection in human stem cell-derived myocytes predict success in large mammals?” (Basic Research in Cardiology, 2021).

Test system: porcine model of MI
Assay: efficacy study: convertible ventricular fibrillation and defibrillation
Set-up: species or system swine
Settings: in vivo
Procedure: Investigators involved in the experimental protocol and analysis of the data were blinded to the treatment status of each pig. Animals were randomly assigned to the treatment groups in two blocks, using a random number series generated online. To control further for potential investigator bias, inclusion and exclusion criteria were formulated prior to the onset of the study. Only healthy pigs weighing 38–48 kg, with a body temperature between 37.0 and 40.0 °C at the start of surgical preparation, were included. Exclusion criteria were: (i) Encountering ventricular fibrillation (VF) during the experimental protocol that could not be converted to sinus rhythm within 2 min. (ii) Encountering VF > 4 times before starting the drug or vehicle infusion. (iii) Developing progressive pump failure (mean arterial pressure (MAP) < 30 mmHg) during first 30 min of reperfusion. […]
The LAD was catheterized with a standard clinical guiding catheter (JL3.5, 6F, Medtronic, Minneapolis, MN), and quantitative coronary angiography (CAAS, PIE Medical, Maastricht, The Netherlands) was performed following 2 mg isosorbidedinitrate (Cedocard, Nycomed, Hoofddorp, The Netherlands) and using iodixanol as contrast agent (Visipaque™, GE Healthcare BV, Eindhoven, The Netherlands). […] Heart rate, aortic blood pressure, and ECG were monitored until 2 h of reperfusion.

Question: With `COCCOc1ccc(-c2cn(-c3ccccc3)c3ncn(COP(=O)(O)O)c(=O)c23)cc1` [DMX-10001] as the compound, how does the “VF during drug infusion” value read?
Answer: did not occur
